The source of these data is PMC2932438 (Journal of pharmaceutical and biomedical analysis, 2010).

One test has as its system T98G glioma cell line. The experiment in a line: MTS proliferation assay. The note with it: Homo sapiens, 48 h, read-out: IC50 values T98G cell line. It counts as cell-based.
Test [1] addresses T1, immobilized ERRα ligand binding domain (Homo sapiens, UniProt P11474).
T1 sequence (P11474 193-421 limits assumed): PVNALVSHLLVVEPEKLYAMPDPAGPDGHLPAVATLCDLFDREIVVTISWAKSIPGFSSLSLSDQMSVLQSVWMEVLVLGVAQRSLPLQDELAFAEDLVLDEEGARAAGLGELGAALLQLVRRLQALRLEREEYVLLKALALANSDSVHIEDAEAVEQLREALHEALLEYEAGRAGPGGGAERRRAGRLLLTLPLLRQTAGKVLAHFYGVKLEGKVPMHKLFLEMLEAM
The test is described as follows: Retention on the ERRα column. The note with it: data not shown.

For a further test, the system named is ERRα. To be noted: cited from earlier work.
The target of a further test is ERRγ. The note with it: cited from earlier work.
Test [2] deals with T2, immobilized ERRγ ligand binding domain (Homo sapiens, UniProt P62508).
T2 sequence (P62508 233-457 limits assumed): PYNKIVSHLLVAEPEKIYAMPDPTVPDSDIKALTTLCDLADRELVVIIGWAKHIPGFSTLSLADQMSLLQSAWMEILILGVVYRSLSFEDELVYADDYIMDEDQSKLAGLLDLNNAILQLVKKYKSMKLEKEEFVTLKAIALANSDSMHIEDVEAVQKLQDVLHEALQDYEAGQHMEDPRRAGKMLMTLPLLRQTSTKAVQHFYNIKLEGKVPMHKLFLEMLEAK
The experiment in a line: Non-linear chromatography.

Broadly, the IC50 is the midpoint of a concentration-inhibition curve. The term Ki denotes a measure of affinity in units of concentration, obtained from inhibition or displacement. In the case of `CC/C(=C(\c1ccc(O)cc1)c1ccc(OCCN(C)C)cc1)c1ccccc1` [4-hydroxy tamoxifen], the IC50 in the test with T98G glioma cell line worked out at 14500 nM. Further, the “specific retention on the ERRα column” value in test [1] is “not specifically retained”. The “affinity for the ERRα” value in the test with ERRα was “no affinity”. The Ki at ERRγ is 75 nM.

One may read the Kd as a measure of binding affinity in units of concentration. Lower therefore signals higher affinity. As to `CC/C(=C(\c1ccc(O)cc1)c1ccc(OCCNC)cc1)c1ccccc1` [Endoxifen], in test [2], the Kd came to 43.2 nM. Moreover, the IC50 in the test on T98G glioma cell line came out at 3400 nM. Moreover, the “specific retention on the ERRα column” value in test [1] is on record as “not specifically retained”. The “affinity for the ERRα” value with ERRα is given as “no affinity”.

On to `CC/C(=C(\c1ccccc1)c1ccc(OCCN(C)C)cc1)c1ccccc1` [Tamoxifen], for which the “affinity for the ERRα” value with ERRα was “no affinity”.
